Source: patent publication US20050191283A1, “Methods of treating NFAT-related disorders” (priority 2003, published 2005)
“Also recorded” adds a separate entry of the source.

Columns and labels:
[1] = tested on: IFN-γ expression in UCB T lymphocytes; test: Intracellular IFN-γ staining in gated CD3+ cells of UCB MNC; format: cell-based, human; conditions: for average percentage of T cells producing IFN-γ: whole UCB MNC
Protocol: (§1) Human umbilical cord blood from full-term deliveries by vaginal or caesarean sections and adult peripheral blood from healthy donors was collected according to guidelines by the Institutional Review Board at University Hospitals of Cleveland. Mononuclear cells (MNC) were isolated by gradient centrifugation, as previously described (6) and used immediately fresh.
(§2) Total MNC were stimulated in bulk culture as previously described (6). Briefly, 2×10^6 cells/ml were stimulated with 2 μg/ml of concanavalin A (ConA) (Sigma Chemical Co, St Louis, Mo.) in complete RPMI medium (Gibco BRL, Gaithersburg, Md.), containing 10% fetal bovine serum (Gibco BRL), 1 mM Sodium-pyruvate, 0.1 mM nonessential amino acids, 10 mM HEPES and 58 μM 2-mercaptoethanol (Sigma Chemical Co), in presence or absence of the manufacturer's recommended concentration of 1 μg/ml of cyclosporin A (CsA) (Sigma Chemical Co), as previously described (7). Where specified, IFN-γ (Roche, Indianapolis, Ind.) was added at indicated concentrations, or neutralizing anti-IFN-γ antibody (R&D Systems, Minneapolis, Minn.) was added at a concentration of 0.25-2 μg/ml. Purified T cells were stimulated as described (26), with plate-bound anti-CD3 (1 μg/ml) and soluble anti-CD28 (5 μg/ml) monoclonal antibodies. Elispot assays were performed as previously described (27). Briefly, ImmunoSpot plates M200 (Cellular Technology Limited, Cleveland Ohio) were coated with capture antibody for IFN-γ M700A-E (2 μg/ml; Endogen, Woburn, Mass.), washed and MNC were plated in complete RPMI medium with 5% ABO serum (Gemini Bioproducts, Calmasas, Calif.)+1% L-glutamine, at 3×10^5 per well. Cells were stimulated with irradiated 3×10^5 T-cell-depleted MNC from a healthy adult or cord blood. T cells were depleted with RosetteSep (StemCell Technologies, Vancouver, Canada), according to manufacturer's directions. After 24 h of stimulation, plates were washed and incubated over night with secondary biotinylated detection antibodies against IFN-γ M701 (0.5 μg/ml; Endogen, Woburn, Mass.). Streptavidin-HRP conjugate (Dako Corp., Carpenteria Calif.) was added and the spots were visualized using the HRP-substrate AEC (Pierce Pharmaceuticals, Rockford Ill.), and subjected to image analysis on a Series 1 ImmunoSpot Image Analyzer (Cellular Technology, Cleveland, Ohio) specifically designed for automated evaluation of ELISPOTs.
MNC from UCB were depleted of monocytes by using monoclonal antibody against CD11b (Pharmingen), followed by anti-IgG magnetic bead (Dynal) depletion as above, or by using anti-CD14 microbeads (Miltenyi Biotech Inc., Auburn, Calif.) and AutoMACS (Miltenyi Biotech Inc.), according to manufacturer's protocol.
Intracellular IFN-γ staining was performed as described previously (6, 7). […] 1×10^6 cells were stained for 30 minutes with the following antibodies: anti-IFN-γ-FITC or -PE (R&D Systems), anti-CD3-APC (Pharmingen), and anti-CD69-PE (Pharmingen) or -PerCP (Becton Dickinson, San Jose, Calif.) and the corresponding isotype controls (Pharmingen, Becton Dickinson). 20,000-80,000 events were acquired on a calibrated Elite ESP flow cytometer (Coulter, Miami, Fla.) and data were analyzed with WinList software (Verity Software House Inc, Topsham, Minn.). For intracellular staining of NFATc2, the same monoclonal antibody clone as used in immunoblotting was custom FITC-conjugated (Transduction Laboratories) and used at a titrated concentration of 1 μg/10^6 cells.

[2] = tested on: IFN-γ expression in purified UCB T cells; test: Intracellular IFN-γ staining in purified UCB T cells; format: cell-based, human
Protocol: as §1
(§3) Total MNC were stimulated in bulk culture as previously described (6). Briefly, 2×10^6 cells/ml were stimulated with 2 μg/ml of concanavalin A (ConA) (Sigma Chemical Co, St Louis, Mo.) in complete RPMI medium (Gibco BRL, Gaithersburg, Md.), containing 10% fetal bovine serum (Gibco BRL), 1 mM Sodium-pyruvate, 0.1 mM nonessential amino acids, 10 mM HEPES and 58 μM 2-mercaptoethanol (Sigma Chemical Co), in presence or absence of the manufacturer's recommended concentration of 1 μg/ml of cyclosporin A (CsA) (Sigma Chemical Co), as previously described (7). Where specified, IFN-γ (Roche, Indianapolis, Ind.) was added at indicated concentrations, or neutralizing anti-IFN-γ antibody (R&D Systems, Minneapolis, Minn.) was added at a concentration of 0.25-2 μg/ml. […]
(§4) Intracellular IFN-γ staining was performed as described previously (6, 7). […] 20,000-80,000 events were acquired on a calibrated Elite ESP flow cytometer (Coulter, Miami, Fla.) and data were analyzed with WinList software (Verity Software House Inc, Topsham, Minn.). […]

[3] = tested on: IFN-γ expression in purified adult T cells; test: Intracellular IFN-γ staining in purified adult T cells; format: cell-based, human; conditions: anti-CD3/CD28 24 h, exogenous IFN-γ 100 U/ml
Protocol: as §1, §3, §4

[4] = tested on: NFATc2 expression in UCB T lymphocytes; test: NFATc2 protein expression by intracellular flow cytometry in gated CD3+ cells of UCB MNC; format: cell-based, human; conditions: for NFATc2 expression (dual staining for NFATc2 and IFN-γ): ConA alone or ConA + 100 U/ml IFN-γ
Protocol: as §1, §2
as §4, with “7). Briefly, MNC were stimulated for the indicated time points, for the last 6-8 h in the presence of 5 μg/ml of Brefeldin A (Sigma Chemical Co), and permeabilized.” for “7).”

[5] = tested on: NFATc2 expression in adult T lymphocytes; test: NFATc2 protein expression by intracellular flow cytometry in gated CD3+ cells of stimulated adult MNC; format: cell-based, human; conditions: adult MNC stimulated 24 h, exogenous IFN-γ 100 U/ml
Protocol: as §1, §3, §4

[6] = tested on: IFN-γ expression by UCB MNC; conditions: exogenous IL-12 added to the stimulation conditions; cited from earlier work
[7] = experiment 1, whole UCB MNC, 24 h
[8] = experiment 2, whole UCB MNC, 24 h
[9] = experiment 3, whole UCB MNC, 24 h
[10] = experiment 4, whole UCB MNC, 24 h

**Q.** With C[C@H]1CCC/C=C/[C@@H]2C[C@H](O)C[C@H]2[C@H](O)/C=C/C(=O)O1 [Brefeldin A, reference compound] as the molecule, how does the “upregulation of IFN-γ in UCB T cells” value ([1]; UCB MNC, ConA ± IFN-γ 100 U/ml, BFA added immediately and for the whole stimulation (BFA 24 h)) read?
**A.** no upregulation of IFN-γ could be observed

**Q.** With “IFN-γ: IFN-γ (Roche, Indianapolis, Ind.) added exogenously during stimulation” as the molecule, how does the IFN-γ rescue effect ([2]; ConA, IFN-γ added) read?
**A.** no IFN-γ rescue effect was observed

**Q.** And the IFN-γ expression ([2]; anti-CD3/CD28 24 h, exogenous IFN-γ 100 U/ml)?
**A.** could not be rescued

**Q.** And the IFN-γ expression [3]?
**A.** no increase in IFN-γ expression was observed

**Q.** What about the IFN-γ-mediated rescue effect ([1]; UCB MNC depleted of B cells and NK cells) of the same molecule?
**A.** did not result in a significant loss of the IFN-γ-mediated rescue effect

**Q.** And the “average percentage of IFN-γ producing T cells” value ([1]; UCB MNC depleted of monocytes prior to stimulation, ConA + IFN-γ, n=4)?
**A.** 1.0%

**Q.** And the “percentages of IFN-γ-expressing T lymphocytes” value ([1]; UCB MNC, ConA 24 h, exogenous IFN-γ 100 U/ml)?
**A.** rose close to that measured in adult T lymphocytes

**Q.** What about the “lowest dose of exogenous IFN-γ with effective IFN-γ rescue” value ([1]; UCB MNC, ConA stimulation, dose titrated down) of the same molecule?
**A.** 50 U/ml

**Q.** What about the IFN-γ expression ([1]; UCB MNC, no stimulation, IFN-γ alone 100 U/ml) of the same molecule?
**A.** did not stimulate IFN-γ expression

**Q.** And the “percentages of CD3+ cells positive for IFN-γ staining” value (from here on “percentages of CD3+ cells positive”) ([1]; experiment 1, UCB MNC depleted of CD11b, 24 h)?
**A.** 0.89%

**Q.** What about the “percentages of CD3+ cells positive” value [1, 7] of the same molecule?
**A.** 1.38%

**Q.** And the “percentages of CD3+ cells positive” value ([1]; experiment 2, UCB MNC depleted of CD11b, 24 h)?
**A.** 0.92%

**Q.** And the “percentages of CD3+ cells positive” value [1, 8]?
**A.** 1.41%

**Q.** What about the “percentages of CD3+ cells positive” value ([1]; experiment 3, UCB MNC depleted of CD11b, 24 h) of the same molecule?
**A.** 1.30%

**Q.** And the “percentages of CD3+ cells positive” value [1, 9]?
**A.** 1.74%

**Q.** And the “percentages of CD3+ cells positive” value ([1]; experiment 4, UCB MNC depleted of CD14, 24 h)?
**A.** 1.07%

**Q.** What about the “percentages of CD3+ cells positive” value [1, 10] of the same molecule?
**A.** 1.83%

**Q.** What about the “average percentage of T cells producing IFN-γ” value ([1]; n=4) of the same molecule?
**A.** 1.6%

**Q.** And the NFATc2 protein expression ([4]; ConA 16 h, added IFN-γ 10-1,000 U/ml, gated CD3+ cells)?
**A.** increased in a dose dependent manner

**Q.** What about the “NFATc2 expression (dual staining for NFATc2 and IFN-γ)” value [4] of the same molecule?
**A.** strong increases of NFATc2 expression

**Q.** And the NFATc2 levels ([4]; absence of stimulation, IFN-γ alone 100 U/ml)?
**A.** intermediate between unstimulated and stimulated T lymphocytes; also recorded: only slightly increased NFATc2 expression

**Q.** And the NFATc2 expression [5]?
**A.** further upregulation of NFATc2

**Q.** Which “upregulation of IFN-γ expression” value ([1]; UCB MNC, ConA 24 h, TNF-A (1 ng/ml) or IL-2 added in place of IFN-γ) does the source give for TNF-A here?
**A.** did not result in upregulation of IFN-γ expression

**Q.** With “concanavalin A [ConA, reference compound]” as the molecule, how does the IFN-γ expression ([1]; UCB MNC, ConA alone) read?
**A.** only a slight increase in IFN-γ expression

**Q.** What about the “percentages of CD3+ cells positive” value [1, 7] of the same molecule?
**A.** 0.96%

**Q.** What about the “percentages of CD3+ cells positive” value [1, 8] of the same molecule?
**A.** 0.78%

**Q.** And the “percentages of CD3+ cells positive” value [1, 9]?
**A.** 0.96%

**Q.** And the “percentages of CD3+ cells positive” value [1, 10]?
**A.** 1.05%

**Q.** And the “average percentage of T cells producing IFN-γ” value ([1]; n=4)?
**A.** 0.9%

**Q.** What about the “NFATc2 expression (dual staining for NFATc2 and IFN-γ)” value [4] of the same molecule?
**A.** increase in NFATc2 upregulation

B1: IL-12: exogenous cytokine, literature result (ref 44) (protein, UniProt P29459 23-219; P29460 23-328, looked up)
Interleukin-12 subunit alpha: RNLPVATPDPGMFPCLHHSQNLLRAVSNMLQKARQTLEFYPCTSEEIDHEDITKDKTSTVEACLPLELTKNESCLNSRETSFITNGSCLASRKTSFMMALCLSSIYEDLKMYQVEFKTMNAKLLMDPKRQIFLDQNMLAVIDELMQALNFNSETVPQKSSLEEPDFYKTKIKLCILLHAFRIRAVTIDRVMSYLNAS
Interleukin-12 subunit beta: IWELKKDVYVVELDWYPDAPGEMVVLTCDTPEEDGITWTLDQSSEVLGSGKTLTIQVKEFGDAGQYTCHKGGEVLSHSLLLLHKKEDGIWSTDILKDQKEPKNKTFLRCEAKNYSGRFTCWWLTTISTDLTFSVKSSRGSSDPQGVTCGAATLSAERVRGDNKEYEYSVECQEDSACPAAEESLPIEVMVDAVHKLKYENYTSSFFIRDIIKPDPPKNLQLKPLKNSRQVEVSWEYPDTWSTPHSYFSLTFCVQVQGKSKREKKDRVFTDKTSATVICRKNASISVRAQDRYYSSSWSEWASVPCS
**Q.** With B1 as the molecule, how does the “IFN-γ expression by UCB MNC” value [6] read?
**A.** could be increased
